Measured values taken from PubChem BioAssay AID2060349 (Molecular Pharmacology Branch, DTP, NCI, 2025).
Values joined by “and” are separate entries in the source; they are usually repeats but may differ in a detail not shown here. Equal values may be shown once. Blank lines part the entries; values can stand above or below the molecule they belong to.

Tested on: 762968-020-R-J2-PDC spheroids viability
Assay: Anticancer human tumor 762968-020-R-J2-PDC patient-derived colon carcinoma cell line growth inhibition [TAK]
Details: spheroids with HUVEC and MSC; for viability, T/C: stronger effect = lower value
Outline: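 Spheroids of 60% malignant cells, 25% HUVEC and 15% hMSC were exposed to targeted agents combined with TAK-243 or ipatasertib. Concentrations started at or near clinical Cmax (10 microM if unknown) and descended in half-log steps.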
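Also: spheroids exposed to drug for 7 days before readout.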
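For viability, T/C in this document: 100% = DMSO vehicle control wells.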

Compound: Cc1nc(NC(=O)N2CCCC2C(N)=O)sc1-c1ccnc(C(C)(C)C(F)(F)F)c1 (centres undefined) + CC(C)NCC(C(=O)N1CCN(c2ncnc3c2C(C)CC3O)CC1)c1ccc(Cl)cc1
- IC50 (curve of first compound, second compound 0.3 µM): > 10 µM
- IC50 (curve of first compound, second compound 0.949 µM): > 10 µM
- IC50 (curve of first compound, second compound 3 µM): > 10 µM
- IC50 (curve of first compound, second compound 9.49 µM): > 10 µM
- IC50 (curve of first compound, second compound 30 µM): > 10 µM
- viability, T/C (second compound 0.3 µM, first compound 0.0316 µM): 119%
- viability, T/C (second compound 0.3 µM, first compound 0.1 µM): 109%
- viability, T/C (second compound 0.3 µM, first compound 0.316 µM): 99.4%
- viability, T/C (second compound 0.3 µM, first compound 1 µM): 92.5%
- viability, T/C (second compound 0.3 µM, first compound 3.16 µM): 98.8%
- viability, T/C (second compound 0.3 µM, first compound 10 µM): 89.7%
- viability, T/C (second compound 0.949 µM, first compound 0.0316 µM): 113%
- viability, T/C (second compound 0.949 µM, first compound 0.1 µM): 111%
- viability, T/C (second compound 0.949 µM, first compound 0.316 µM): 97.2%
- viability, T/C (second compound 0.949 µM, first compound 1 µM): 102%
- viability, T/C (second compound 0.949 µM, first compound 3.16 µM): 99.5%
- viability, T/C (second compound 0.949 µM, first compound 10 µM): 94.6%
- viability, T/C (second compound 3 µM, first compound 0.0316 µM): 108%
- viability, T/C (second compound 3 µM, first compound 0.1 µM): 109%
- viability, T/C (second compound 3 µM, first compound 0.316 µM): 108%
- viability, T/C (second compound 3 µM, first compound 1 µM): 102%
- viability, T/C (second compound 3 µM, first compound 3.16 µM): 94.4%
- viability, T/C (second compound 3 µM, first compound 10 µM): 99.7%
- viability, T/C (second compound 9.49 µM, first compound 0.0316 µM): 110%
- viability, T/C (second compound 9.49 µM, first compound 0.1 µM): 108%
- viability, T/C (second compound 9.49 µM, first compound 0.316 µM): 105%
- viability, T/C (second compound 9.49 µM, first compound 1 µM): 106%
- viability, T/C (second compound 9.49 µM, first compound 3.16 µM): 94%
- viability, T/C (second compound 9.49 µM, first compound 10 µM): 89.6%
- viability, T/C (second compound 30 µM, first compound 0.0316 µM): 78.6%
- viability, T/C (second compound 30 µM, first compound 0.1 µM): 81.5%
- viability, T/C (second compound 30 µM, first compound 0.316 µM): 81.8%
- viability, T/C (second compound 30 µM, first compound 1 µM): 75.7%
- viability, T/C (second compound 30 µM, first compound 3.16 µM): 74.3%
- viability, T/C (second compound 30 µM, first compound 10 µM): 69.8%

- IC50 (curve of compound): > 10 µM
Compound: CC(C)(C)c1nc(-c2cccc(NS(=O)(=O)c3c(F)cccc3F)c2F)c(-c2ccnc(N)n2)s1
- viability, T/C (compound 0.0316 µM): 85.6% and 94.4%
- viability, T/C (compound 0.1 µM): 82.9% and 88.2%
- viability, T/C (compound 0.316 µM): 92.5% and 85.2%
- viability, T/C (compound 1 µM): 86.4% and 81%
- viability, T/C (compound 3.16 µM): 90.5% and 88.5%
- viability, T/C (compound 10 µM): 99.3% and 86.4%

- IC50 (curve of compound): > 100 µM
Compound: CCCS(=O)(=O)Nc1ccc(F)c(C(=O)c2c[nH]c3ncc(-c4ccc(Cl)cc4)cc23)c1F
- viability, T/C (compound 0.316 µM): 88.9% and 96.2%
- viability, T/C (compound 1 µM): 87.8% and 96.9%
- viability, T/C (compound 3.16 µM): 90.3% and 92.5%
- viability, T/C (compound 10 µM): 73.6% and 62.2%
- viability, T/C (compound 31.6 µM): 99.2% and 102%
- viability, T/C (compound 100 µM): 90.3% and 105%
